Results as given in ChEMBL document CHEMBL1255271, “Determinants of in vitro drug susceptibility testing of Plasmodium vivax” (Antimicrob Agents Chemother, 2008).

How the values were obtained:
Plasmodium vivax [1] = assay: Antimicrobial activity against Plasmodium vivax trophozoites measured after 30 hrs by microscopy; type: functional, organism-based
Plasmodium vivax [2] = assay: Antimicrobial activity against Plasmodium vivax at the ring stage measured after 30 hrs by microscopy; type: functional, organism-based
Plasmodium vivax [3] = assay: Antimicrobial activity against Plasmodium vivax trophozoites measured within 30 hrs by microscopy; type: functional, organism-based
Plasmodium vivax [4] = assay: Antimicrobial activity against Plasmodium vivax at the ring stage measured within 30 hrs by microscopy; type: functional, organism-based
Plasmodium vivax [5] = assay: Antimicrobial activity against Plasmodium vivax trophozoites by microscopy; type: functional, organism-based
Plasmodium vivax [6] = assay: Antimicrobial activity against Plasmodium vivax at the ring stage by microscopy; type: functional, organism-based
Plasmodium vivax [7] = assay: Antimicrobial activity against Plasmodium vivax at the trophozoites by microscopy treated during ring stage; type: functional, organism-based
Plasmodium falciparum [8] = assay: microbe, parasite or virus in culture
Description: Antimicrobial activity against Plasmodium falciparum trophozoites by microscopy treated during ring stage

Plasmodium falciparum [9] = assay: microbe, parasite or virus in culture; remark: listed apart in the source
Description: Antimicrobial activity against Plasmodium falciparum at the ring stage by microscopy

Plasmodium vivax [10] = assay: Antimicrobial activity against fast-growing synchronous Plasmodium vivax by microscopy
Plasmodium vivax [11] = assay: Antimicrobial activity against slow-growing synchronous Plasmodium vivax by microscopy

| IC50 (Plasmodium vivax [1]) [nM] | IC50 (Plasmodium vivax [2]) [nM] | IC50 (Plasmodium vivax [3]) [nM] | IC50 (Plasmodium vivax [4]) [nM] | IC50 (Plasmodium vivax [10]) [nM] | IC50 (Plasmodium vivax [11]) [nM] | SMILES | IC50 (Plasmodium vivax [5]) [nM] | IC50 (Plasmodium vivax [6]) [nM] | IC50 (Plasmodium vivax [7]) [nM] | IC50 (Plasmodium falciparum [8]) [nM] | IC50 (Plasmodium falciparum [9]) [nM] |
| --- | --- | --- | --- | --- | --- | --- | --- | --- | --- | --- | --- |
| 29.1 | 14.6 | 22.9 | 31.2 |  |  | Clc1ccc2c(N3CCN(CCCN4CCN(c5ccnc6cc(Cl)ccc56)CC4)CC3)ccnc2c1 [PIPERAQUINE] |  |  |  |  |  |
| 32.9 | 37.6 | 14.6 | 24.8 |  |  | CCCCN(CCCC)CC(O)c1cc(Cl)cc2c1-c1ccc(Cl)cc1/C2=C/c1ccc(Cl)cc1 (stereo not given) [LUMEFANTRINE] |  |  |  |  |  |
| 298 | 59.8 | 539 | 475 | 435 | 39.9 | CCN(CC)CCCC(C)Nc1ccnc2cc(Cl)ccc12 (stereo not given) [CHLOROQUINE] | 478 | 55.2 | 2810 |  |  |

Second part, the compound before the results:

| SMILES | IC50 (Plasmodium vivax [1]) [nM] | IC50 (Plasmodium vivax [2]) [nM] | IC50 (Plasmodium vivax [3]) [nM] | IC50 (Plasmodium vivax [4]) [nM] | IC50 (Plasmodium vivax [10]) [nM] | IC50 (Plasmodium vivax [11]) [nM] | IC50 (Plasmodium vivax [5]) [nM] | IC50 (Plasmodium vivax [6]) [nM] | IC50 (Plasmodium vivax [7]) [nM] | IC50 (Plasmodium falciparum [8]) [nM] | IC50 (Plasmodium falciparum [9]) [nM] |
| --- | --- | --- | --- | --- | --- | --- | --- | --- | --- | --- | --- |
| OC(c1cc(C(F)(F)F)nc2c(C(F)(F)F)cccc12)C1CCCCN1 (stereo not given) [MEFLOQUINE] | 7.27 | 7.26 | 17.4 | 22.2 |  |  | 17 | 6.39 | 12.5 | 4.6 |  |
| C[C@H]1[C@H](OC(=O)CCC(=O)O)O[C@@H]2O[C@@]3(C)CC[C@H]4[C@H](C)CC[C@@H]1[C@@]24OO3 [ARTESUNATE] | 1.2 | 0.83 | 1.6 | 1.39 |  |  | 1.61 | 0.86 |  |  |  |
| CCN(CC)Cc1cc(Nc2ccnc3cc(Cl)ccc23)ccc1O | 16.5 | 7.85 | 18.9 | 23.4 |  |  | 22.1 | 10 | 24.2 | 8.2 | 15.2 |
